Laboratory results: patent US11479570B2, “Pentafluorophosphate derivative, its uses and an appropriate manufacturing method” (FREIE UNIVERSITÄT BERLIN, priority 2017, dated 2022)
“Also recorded” adds a separate entry of the source. Like-named read-outs stand apart in the source and are kept apart here.

Tests used:
[1] = target: T1, protein tyrosine phosphatase PTP1B (Homo sapiens, UniProt P18031); conditions: data published (literature), cited from earlier work
T1 sequence (P18031 1-435): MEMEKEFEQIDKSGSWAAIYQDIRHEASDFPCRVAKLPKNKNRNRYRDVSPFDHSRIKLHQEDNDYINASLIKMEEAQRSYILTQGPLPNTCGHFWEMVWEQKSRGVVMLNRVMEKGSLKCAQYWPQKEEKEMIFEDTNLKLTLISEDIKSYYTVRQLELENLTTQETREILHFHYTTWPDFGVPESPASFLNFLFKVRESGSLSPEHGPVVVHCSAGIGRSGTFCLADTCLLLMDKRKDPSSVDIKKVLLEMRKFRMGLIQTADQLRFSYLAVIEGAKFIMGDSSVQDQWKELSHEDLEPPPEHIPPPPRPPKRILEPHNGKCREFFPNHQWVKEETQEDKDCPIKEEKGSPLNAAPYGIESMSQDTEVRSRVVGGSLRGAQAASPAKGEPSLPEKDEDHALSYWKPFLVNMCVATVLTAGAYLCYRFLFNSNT

[2] = target: T1, protein tyrosine phosphatase PTP1B; assay: PTP1B enzyme assay (detection of chromogenic para-nitrophenolate); type: biochemical; conditions: for Ki: detection of the chromogenic para-nitrophenolate at 405 nm, read-out: inhibition constant KI (inhibitory effect on PTP1B in an enzyme assay)
From the text: (§1) In order to enhance the solubility in aqueous systems and to exclude any interfering effects of the counter ion NMe4^+, compound 13 was transferred into its sodium salt 13-Na.
During the measurements of the inhibitory effect of 13-Na, inhibitors with known inhibition constants were used in parallel as positive controls in order to verify the reliability of the assay.

Solubility = type: physicochemical; conditions: tetramethylammonium salt
From the text: The obtained product 14-Na (cf. FIG. 5B) was stable and well soluble in the used biochemical buffer.

[3] = Stability in aqueous solution by 19F-NMR spectroscopy; type: physicochemical; conditions: pH range from 2 to 12 in aqueous solution, D2O, after several hours
From the text: as §1

[4] = Lipophilicity from elution properties on RP-HPLC; type: physicochemical; conditions: in accordance with elution properties on RP-HPLC
Method: Formation of α,α-difluorobenzyl-penta-P-fluorophosphate 13 was confirmed by HPLC-MS analysis displaying very uncommon elution properties both on C8 and C18 reversed phase silica. While the phosphonic acid 12 eluted at 3.4 min on RP-18 material displaying a symmetric peak and a characteristic UV spectrum, compound 13 interacted strongly with the column material, resulting in elution after 9 min at the very end of the default gradient (5 to 95% ACN in water). Additionally, no absorbance of 13 at 210 nm, 254 nm and 290 nm could be observed. These properties hampered chromatographic purifications like reverse phase MPLC.

In the case of O=P(O)(O)Cc1ccccc1 [Benzyl phosphonic acid], the “Inhibitory effect on PTP1B in an enzyme assay (in words)” value ([1]; comparative example) is given as “No inhibition”.
In the case of C[N+](C)(C)C.FC(F)(c1ccccc1)[P-](F)(F)(F)(F)F [compound 13, tetramethylammonium (difluoro-(phenyl)-methyl)-penta-P-fluorophosphate], the “inhibitory potential towards PTP1B (in words)” value [2] is reported as “reversible inhibitor; also recorded: significant affinity”, the Ki [2] is reported as 1800 µM and the “solubility in acetonitrile versus water” value (Solubility) is reported as “more soluble in acetonitrile than in water”. For the same molecule, the “stability (degradation or hydrolysis)” value [3] was “no degradation or hydrolysis could be observed” and the “lipophilicity compared to phosphonate 12” value [4] was “significantly more lipophilic”.
For C[N+](C)(C)C.FC(F)(c1ccc2ccccc2c1)[P-](F)(F)(F)(F)F [compound 14, tetramethylammonium (difluoro-(naphtha-2-yl)-methyl)-penta-P-fluorophosphate], the Ki [2] was 26 µM.
For Fluorobenzyl phosphonic acid, the Ki ([1]; comparative examples, read-out: Inhibitory effect on PTP1B in an enzyme assay, KI) is given as ~5000 µM.
